From publication PMC5951806, “Rapid labelling and covalent inhibition of intracellular native proteins using ligand-directed N-acyl-N-alkyl sulfonamide” (Nature Communications, 2018)

What was measured:
[1] = target: T1, prenylcysteine oxidase 1 (PCYOX1) (Homo sapiens, UniProt Q9UHG3); test: TMT LC-MSMS of 11-labelled proteins; assay type: cell-based
T1 sequence (Q9UHG3 28-505): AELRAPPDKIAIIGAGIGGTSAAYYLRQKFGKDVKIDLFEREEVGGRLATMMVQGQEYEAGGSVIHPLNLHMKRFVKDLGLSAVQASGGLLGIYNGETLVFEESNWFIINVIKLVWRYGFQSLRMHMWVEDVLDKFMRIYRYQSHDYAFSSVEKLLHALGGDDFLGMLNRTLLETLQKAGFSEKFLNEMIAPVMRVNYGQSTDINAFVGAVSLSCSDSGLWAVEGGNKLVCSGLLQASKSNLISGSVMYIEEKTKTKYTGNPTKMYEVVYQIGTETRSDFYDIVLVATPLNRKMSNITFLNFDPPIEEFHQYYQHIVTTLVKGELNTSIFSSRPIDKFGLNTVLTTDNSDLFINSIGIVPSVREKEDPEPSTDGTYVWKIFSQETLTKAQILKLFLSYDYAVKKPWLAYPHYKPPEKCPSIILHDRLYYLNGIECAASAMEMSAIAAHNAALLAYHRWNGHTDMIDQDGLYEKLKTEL
Excerpt: (§1) The labelled proteins were enriched by immunoprecipitation with an anti-fluorescein antibody and tryptically digested in gel. Digested peptides were modified with Light- (L-), Medium- (M-), or Heavy- (H-) TMT reagent for samples treated with 11, 11 with PU-H71 (as competitive condition), or DMSO (vehicle), respectively, and mixed in a 1:1:1 ratio for LC-MSMS analysis. We performed three experimental replicates, in which proteins detected and quantified at least twice were selected as identified proteins. According to the related approach of Cravatt et al[44], the proteins having L/H (11/DMSO) ratios >5 were defined as 11-labelled proteins. […] On the basis of these criteria, we identified 6 proteins that react with 11, including three ligand-specific targets (Hsp90α (HSP90AA1), Hsp90β (HSP90AB1), and Grp94 (HSP90B1)) and three off-targets (Trifunctional enzyme subunit α (HADHA), Tubulin-α (TUBA1B), and ADP/ATP translocase 3 (SLC25A6)) (Fig. 5d, e and Supplementary Data 1). […] Grp94, a HSP90 isomer, was previously reported to be a PU-H71 specific target. TRAP-1, another Hsp90 isomer that can bind PU-H71, on the other hand, was not identified as 11-target by our criteria.
(§2) SKBR3 human breast cancer cells (2.0 × 10^6 cells) were seeded on a 10 cm dish and cultured for 3 days in McCoy’s 5A in a 5% CO2 humidified chamber at 37 °C. […] As competitive experiments, the labelling was conducted in the presence of PU-H71 (10 µM). After labelling, the cells were washed twice with PBS, and lysed with RIPA buffer. […] The supernatant was mixed with chilled acetone and incubated overnight at −80 °C. The protein precipitates were solubilized by sonication in 1 mL of RIPA buffer containing 1% SDS, and then 10-fold diluted with RIPA buffer to reduce SDS concentration to c.a. 0.1%. The protein solution (containing 1 mg of protein) was mixed with Protein G Sepharose 4 Fast Flow (GE Healthcare) and rotated at 4 °C for 1 h. After removal of the beads, the remaining supernatant was mixed with anti-fluorescein antibody (Abcam, ab19491, 7:10000) and rotated at 4 °C for 1 h, followed by addition of fresh Protein G Sepharose 4 Fast Flow and further incubation at 4 °C for 4 h. The beads were washed five times with RIPA buffer and once with PBS. Proteins were eluted from the beads by addition of 2 × sample buffer containing 100 mM DTT and boiling at 95 °C for 5 min. The samples were subjected to a 7.5% SDS–PAGE gel (Mini-PROTEAN TGX Gels, BioRad), and electrophoresed as the migration distance of dye front is about 10 mm. Each lane was excised (height, 10 mm), and treated with a 47.5% methanol / 47.5% pure water / 5% acetic acid for 20 min, a 50% methanol / 50% pure water for 10 min, and in pure water for 10 min. The gel pieces were dehydrated with 100% acetonitrile, and then swelled with 200 μL of 100 mM TEAB (triethylamine bicarbonate) buffer containing 10 mM DTT and heated at 56 °C for 30 min. The solutions were replaced with 200 µL of 100 mM TEAB buffer containing 55 mM iodoacetamide and incubated for 45 min in the dark. The gel pieces were washed with 100 mM TEAB buffer and dehydrated in acetonitrile. This step was repeated once. The gels were reswelled in 100 mM TEAB buffer containing 10 ng/μL Sequencing Grade Trypsin (Promega) and incubated overnight at 37 °C. To the gels, 50 μL of an extraction solution (50% acetonitrile, 0.1% TFA) was added. After 10 min incubation, the supernatants were collected to new tubes, and this process was repeated twice. Extracted peptides were dried in vacuo and reconstituted with 25 μL of 100 mM TEAB buffer.

[2] = target: T2, Isoform 2 of Fructose-bisphosphate aldolase A (ALDOA) (Homo sapiens, UniProt P04075); test: TMT LC-MSMS of 11-labelled proteins; assay type: cell-based
T2 sequence (P04075 2-364 limits assumed): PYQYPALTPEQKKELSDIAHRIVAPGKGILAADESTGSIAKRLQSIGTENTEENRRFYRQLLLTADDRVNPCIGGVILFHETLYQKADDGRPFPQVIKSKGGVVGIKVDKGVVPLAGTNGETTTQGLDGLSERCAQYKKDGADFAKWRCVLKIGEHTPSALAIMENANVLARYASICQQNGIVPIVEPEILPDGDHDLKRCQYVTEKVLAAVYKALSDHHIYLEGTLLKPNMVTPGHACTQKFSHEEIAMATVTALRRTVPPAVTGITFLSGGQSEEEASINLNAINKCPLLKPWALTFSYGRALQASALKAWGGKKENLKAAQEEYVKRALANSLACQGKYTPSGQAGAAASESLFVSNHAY
Excerpt: as §1, §2

proteins of SKBR3 cells = test: Identification of 11-labelled proteins in live cells (TMT quantitative LC-MSMS), all proteins; assay type: cell-based, human; settings: 0.5 µM, 3 h, three ligand-specific targets and three off-targets
Excerpt: as §1
SKBR3 human breast cancer cells (2.0 × 10^6 cells) were seeded on a 10 cm dish and cultured for 3 days in McCoy’s 5A in a 5% CO2 humidified chamber at 37 °C. […]

[3] = sheet Exp1, SKBR3 cells, 11 0.5 µM 3 h vs DMSO
[4] = sheet Exp1, SKBR3 cells, 11 0.5 µM 3 h vs with PU-H71 10 µM
[5] = sheet Merged, SKBR3 cells, 11 0.5 µM 3 h vs DMSO
[6] = sheet Merged, SKBR3 cells, 11 0.5 µM 3 h vs with PU-H71 10 µM

Abundance Ratio: (11) / (11 with PU-H71) ([1]; Exp3, PCYOX1): 0.713
Abundance Ratio: (11) / (DMSO) ([1]; Exp3, PCYOX1): 1.251
Abundances (Grouped): 11 ([1]; Exp3, PCYOX1): 54.9
Abundances (Grouped): 11 with PU-H71 ([1]; Exp3, PCYOX1, with PU-H71): 77
Abundance Ratio: (11) / (DMSO) [1, 3]: 1.831
Abundance Ratio: (11) / (11 with PU-H71) [1, 4]: 0.86
Abundance Ratio: (11) / (DMSO) [1, 5]: 1.513
Abundance Ratio: (11) / (11 with PU-H71) [1, 6]: 0.783
Abundance Ratio: (11) / (11 with PU-H71) ([2]; Exp3, ALDOA): 0.706
Abundance Ratio: (11) / (DMSO) ([2]; Exp3, ALDOA): 3.817
Abundances (Grouped): 11 ([2]; Exp3, ALDOA): 494.7
Abundances (Grouped): 11 with PU-H71 ([2]; Exp3, ALDOA): 700.9
Abundance Ratio: (11) / (DMSO) [2, 3]: 4.85
Abundance Ratio: (11) / (11 with PU-H71) [2, 4]: 0.675
Abundance Ratio: (11) / (11 with PU-H71) ([2]; sheet Exp2, ALDOA): 0.724
Abundance Ratio: (11) / (DMSO) ([2]; sheet Exp2, ALDOA): 4.699
Abundances (Grouped): 11 ([2]; sheet Exp2, ALDOA): 363.2
Abundances (Grouped): 11 with PU-H71 ([2]; sheet Exp2, ALDOA): 502
Abundance Ratio: (11) / (DMSO) [2, 5]: 4.85
Abundance Ratio: (11) / (11 with PU-H71) [2, 6]: 0.675
Compound: CC(=O)Oc1ccc2c(c1)Oc1cc(OC(C)=O)ccc1C21OC(=O)c2cc(C(=O)NCCOCCOCCNC(=O)CCCC(=O)N(CC#N)S(=O)(=O)c3ccc(C(=O)NCCCn4c(Sc5cc6c(cc5I)OCO6)nc5c(N)ncnc54)cc3)ccc21 [compound 11]
number of proteins that react with 11 (L/H ratios >5) (proteins of SKBR3 cells): 6
